According to US5223421A, “Identification of methionine Nα-acetyltransferase” (The General Hospital Corporation, priority 1990, dated 1993):
Entries after “also recorded” stand apart in the source; their conditions may differ. Read-outs that look alike come from different tables or passages of the source. One block for each compound: values may come before it.

Assays:
yeast N^α AT = target: T1, yeast N^α AT (Saccharomyces cerevisiae, UniProt P07347+P12945); assay: Effect of ions and reagents on yeast N^α AT (comparison in the discussion); format: biochemical
T1 sequence (P12945 2-854 limits assumed): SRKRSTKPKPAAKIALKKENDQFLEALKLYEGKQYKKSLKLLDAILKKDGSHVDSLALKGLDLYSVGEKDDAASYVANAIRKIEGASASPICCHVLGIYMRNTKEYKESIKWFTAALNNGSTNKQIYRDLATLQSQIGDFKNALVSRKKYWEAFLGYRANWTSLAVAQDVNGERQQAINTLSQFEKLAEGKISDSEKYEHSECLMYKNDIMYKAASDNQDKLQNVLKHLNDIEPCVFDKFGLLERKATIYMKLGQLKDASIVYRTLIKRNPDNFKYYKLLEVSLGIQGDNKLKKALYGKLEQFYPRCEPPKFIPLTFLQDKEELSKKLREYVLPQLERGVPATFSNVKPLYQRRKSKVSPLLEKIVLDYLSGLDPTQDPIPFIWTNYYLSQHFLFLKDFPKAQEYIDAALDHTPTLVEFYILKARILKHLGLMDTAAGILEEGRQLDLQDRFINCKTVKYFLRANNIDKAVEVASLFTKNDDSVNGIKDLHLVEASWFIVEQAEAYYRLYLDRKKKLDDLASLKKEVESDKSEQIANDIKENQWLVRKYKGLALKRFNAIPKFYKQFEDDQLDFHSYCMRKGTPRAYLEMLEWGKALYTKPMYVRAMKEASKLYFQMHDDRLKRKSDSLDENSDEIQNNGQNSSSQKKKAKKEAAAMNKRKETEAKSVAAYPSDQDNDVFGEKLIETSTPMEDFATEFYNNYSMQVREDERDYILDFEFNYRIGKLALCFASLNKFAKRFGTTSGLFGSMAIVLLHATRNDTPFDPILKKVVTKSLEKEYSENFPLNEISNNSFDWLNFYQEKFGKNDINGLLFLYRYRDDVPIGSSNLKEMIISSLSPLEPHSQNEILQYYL
T1 sequence (P07347 1-238): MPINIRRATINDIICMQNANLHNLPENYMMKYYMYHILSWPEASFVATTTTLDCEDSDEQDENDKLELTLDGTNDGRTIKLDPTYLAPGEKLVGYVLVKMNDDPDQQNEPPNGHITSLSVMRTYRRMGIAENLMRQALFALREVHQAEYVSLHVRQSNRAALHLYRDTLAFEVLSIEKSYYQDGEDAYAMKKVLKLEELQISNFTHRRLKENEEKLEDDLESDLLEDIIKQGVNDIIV

[1] = system: methionine N^α -acetyltransferase from S. cerevisiae; format: biochemical, Saccharomyces cerevisiae; conditions: for effect of ion or salt on M-N^α AT activity: concentration not given; for Enzyme Activity (%): 5 min room temperature, 50 mM HEPES pH 7.4, 1 mM DTT, substrate PAI (N=3)
Protocol: (§1) N^α -acetyltransferase activity was determined as previously described [Lee et al., J. Biol. Chem. 263:14948-14955 (1988)]. Aliquots of the lysate or chromatographic fractions were added to 1.5 ml Eppendorf tubes containing a reaction mixture of 50 mM HEPES, pH 7.4, 150 mM KCl, 1 mM DTT, 25 μM [^3 H] acetyl coenzyme A (0.5 μCi) and 50 μM synthetic peptide with an adjusted final volume of 100 μl. The assay mixture was incubated at 30° C. for 30 min. The reaction was stopped by adding 17 μl of 0.5M acetic acid and chilled in an ice bath. The reaction samples were filtered through SP membrane discs (Cuno) (previously pre-swollen in 0.5M acetic acid), and then washed three times with 1 ml of 0.5M acetic acid on a Millipore 1225 sampling manifold. The partially dried membranes were placed in scintillation cocktail and counted with a Beckman LS 3801 scintillation counter.
Yeast methionine acetyltransferase was incubated in the presence of various divalent cations at a room temperature for 5 min in 50 mM HEPES, pH 7.4 containing 1 mM DTT. The enzyme activity was determined under standard assay conditions using PAI (N=3), as described above.

[2] = system: yeast M-N^α -acetyltransferase; assay: Effect of KCl or NaCl on enzyme activity; format: biochemical, Saccharomyces cerevisiae; conditions: for reduction in enzyme activity: enzyme assay performed at 0.8M, 800000 µM; for effect on enzyme activity: up to 0.5M in the assay
Protocol: as §1, with “counter. One unit of activity was defined as the amount of enzyme able to transfer 1 pmol of [^3 H] acetyl group from [^3 H] acetyl coenzyme A to synthetic peptide per min under standard enzyme assay conditions defined above.” for “counter.”

[3] = system: methionine N^α -acetyltransferase from S. cerevisiae; assay: Effect of protein modification reagents on enzyme activity; format: biochemical, Saccharomyces cerevisiae; conditions: for Enzyme Activity (%): 30° C. 15 min, then dialyzed, substrate PAI (N=3)
Protocol: as §1, with “counter. One unit of activity was defined as the amount of enzyme able to transfer 1 pmol of [^3 H] acetyl group from [^3 H] acetyl coenzyme A to synthetic peptide per min under standard enzyme assay conditions defined above.” for “counter.”
In order to determine the possible catalytic role for different types of amino acid residues in the enzyme, various chemical modifications were carried out (Table 10). Yeast methionine acetyltransferase was incubated with each reagent at 30° C. for 15 min, dialyzed against 50 mM HEPES, pH 7.4, 150 mM, 1 mM DTT at 4° C. for 3 to 4 hr. The enzyme activity was determined under standard assay conditions using PAI (N=3), assayed as described above.

[4] = system: N^α -acetyltransferase activity of crude yeast lysate, wild-type (AAA1) strain T3A; assay: N^α -acetylation of peptide substrates by crude yeast lysate, wild-type strain; format: biochemical, Saccharomyces cerevisiae; conditions: crude lysate of wild-type strain T3A; mean ± SD (N=3-5); normalized to human adrenocorticotropic hormone (1-24); 50 μM peptide
Protocol: as §1, with “counter. One unit of activity was defined as the amount of enzyme able to transfer 1 pmol of [^3 H] acetyl group from [^3 H] acetyl coenzyme A to synthetic peptide per min under standard enzyme assay conditions defined above.” for “counter.”
(§2) The wild-type (containing endogenous N^α -acetyltransferase activity) and the aaa1 (lacking endogenous N^α -acetyltransferase activity) strains were T3A and T3A-a, respectively (Lee, F-J. S., et al., J. Bacteriol. 171, 5795-5802 (1989)). Human adrenocorticotropic hormone (1-24), yeast alcohol dehydrogenase (1-24), and human superoxide dismutase (1-24) have either serine or alanine as amino-terminal residues, while proteinase A inhibitor 3 has a methionine residue. The synthesis of the peptide substrates, the preparation of the crude yeast homogenate, and the assay of enzyme activity were as previously described by Lee et al. (Lee, F-J. S., et al., J. Biol. Chem. 263:14948 (1988); Kamitani, K., et al., J. Biol. Chem. 264:13188 (1989)). The numbers in parentheses refer to the residue numbers, and the letters in parentheses specify the amino acid sequence. Abbreviations: A (alanine), C (cysteine), D (aspartic acid), E (glutamic acid), F (phenylalanine), G (glycine), H (histidine), I (isoleucine), K (lysine), L (leucine), M (methionine), N (asparagine), P (proline), Q (glutamine), R (arginine), S (serine), T (threonine), V (valine), W (tryptophan). Data are reported as mean activity±SD (N=3-5) and are normalized to the activity of the homogenate towards human adrenocorticotropic hormone (1-24).

[5] = target: T2, N^α -acetyltransferase activity of crude yeast lysate, aaa1 mutant strain T3A-a (Saccharomyces cerevisiae, UniProt Q06504); assay: N^α -acetylation of peptide substrates by crude yeast lysate, aaa1 mutant strain; format: biochemical; conditions: crude lysate of aaa1 mutant strain T3A-a; mean ± SD (N=3-5); normalized to human adrenocorticotropic hormone (1-24); 50 μM peptide
T2 construct: a crude yeast homogenate from the aaa1 mutant strain; endogenous in cells; host or cells: Saccharomyces cerevisiae strain T3A-a (aaa1), crude lysate
T2 sequence (Q06504 1-195): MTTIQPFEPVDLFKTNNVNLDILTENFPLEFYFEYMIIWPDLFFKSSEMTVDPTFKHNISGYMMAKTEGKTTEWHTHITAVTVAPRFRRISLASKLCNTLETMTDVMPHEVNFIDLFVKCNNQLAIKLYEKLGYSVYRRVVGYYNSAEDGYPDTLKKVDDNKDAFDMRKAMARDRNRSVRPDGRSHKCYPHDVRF
T2 sequence (Q12387 1-796 partner): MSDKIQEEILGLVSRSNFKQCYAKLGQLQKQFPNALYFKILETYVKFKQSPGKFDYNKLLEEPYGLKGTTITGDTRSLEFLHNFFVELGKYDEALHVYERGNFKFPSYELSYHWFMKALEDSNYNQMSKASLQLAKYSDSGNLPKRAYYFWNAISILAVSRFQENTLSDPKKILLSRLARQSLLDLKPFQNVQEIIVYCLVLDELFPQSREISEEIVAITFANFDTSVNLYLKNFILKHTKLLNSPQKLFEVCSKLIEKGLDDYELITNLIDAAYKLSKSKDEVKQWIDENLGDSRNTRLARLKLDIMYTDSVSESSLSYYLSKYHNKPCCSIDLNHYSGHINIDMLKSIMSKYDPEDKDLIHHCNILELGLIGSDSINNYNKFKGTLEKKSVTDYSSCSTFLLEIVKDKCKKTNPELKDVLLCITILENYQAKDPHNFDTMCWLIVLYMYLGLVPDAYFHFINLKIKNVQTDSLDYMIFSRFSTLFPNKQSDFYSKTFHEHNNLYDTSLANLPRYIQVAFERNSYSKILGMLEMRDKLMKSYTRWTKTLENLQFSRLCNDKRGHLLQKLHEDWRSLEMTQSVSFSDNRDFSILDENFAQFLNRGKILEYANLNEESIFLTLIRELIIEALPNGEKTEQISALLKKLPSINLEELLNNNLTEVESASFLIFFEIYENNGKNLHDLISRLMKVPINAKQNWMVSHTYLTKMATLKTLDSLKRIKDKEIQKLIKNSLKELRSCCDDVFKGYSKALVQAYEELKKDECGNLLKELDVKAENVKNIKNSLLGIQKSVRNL
Protocol: as §1, with “counter. One unit of activity was defined as the amount of enzyme able to transfer 1 pmol of [^3 H] acetyl group from [^3 H] acetyl coenzyme A to synthetic peptide per min under standard enzyme assay conditions defined above.” for “counter.”
as §2

Compound: O=S(=O)([O-])[O-].[Zn+2] [ZnSO4]
effect of ion on N^α AT activity (yeast N^α AT): inhibited markedly
effect of ion or salt on M-N^α AT activity ([1]; listed as Zn^2+): pronounced and concentration-dependent inhibition; also recorded: inhibited markedly
Enzyme Activity (%) ([1]; salt 0.01 mM): 95%
Enzyme Activity (%) ([1]; salt 0.1 mM): 52%
Enzyme Activity (%) ([1]; salt 1 mM): 0%

Compound: [Cl-].[Na+] [NaCl]
reduction in enzyme activity [2]: 50%
effect on enzyme activity [2]: did not affect the enzyme activity

Compound: O=S(=O)([O-])[O-].[Cu+2] [CuSO4]
effect of ion on N^α AT activity (yeast N^α AT): inhibited markedly
effect of ion or salt on M-N^α AT activity ([1]; listed as Cu^2+): pronounced and concentration-dependent inhibition; also recorded: inhibited markedly
Enzyme Activity (%) ([1]; salt 0.1 mM): 65%
Enzyme Activity (%) ([1]; salt 1 mM): 0%

Compound: CCN1C(=O)C=CC1=O [NEM, N-ethylmaleimide]
effect of reagent on N^α AT activity (yeast N^α AT): inability
effect of reagent on M-N^α AT activity ([3]; 0.5 mM): partial inactivation
effect of reagent on M-N^α AT activity ([3]; concentration not given): inability
Enzyme Activity (%) ([3]; reagent 0.5 mM): 77%
Enzyme Activity (%) ([3]; reagent 5.0 mM): 20%

Compound: [Cl-].[K+] [KCl]
reduction in enzyme activity [2]: 50%
effect on enzyme activity [2]: did not affect the enzyme activity

effect of reagent on N^α AT activity (yeast N^α AT): inability
Enzyme Activity (%) ([3]; reagent 10.0 mM): 95%
Compound: OC(CS)C(O)CS (centres unmarked) [DTT]
effect of reagent on M-N^α AT activity ([3]; concentration not given): did not affect the enzyme activity; also recorded: inability

Compound: Cl [chloride ion]
effect of ion on N^α AT activity (yeast N^α AT): neither M-N^α AT nor N^α AT were activated
effect of ion or salt on M-N^α AT activity [1]: neither M-N^α AT nor N^α AT were activated

Compound: OCCS [2-mercaptoethanol]
effect of reagent on N^α AT activity (yeast N^α AT): inability
effect of reagent on M-N^α AT activity ([3]; concentration not given): did not affect the enzyme activity
effect of reagent on M-N^α AT activity ([3]; concentration not given, listed as β-mercaptoethanol): inability
Enzyme Activity (%) ([3]; reagent 10.0 mM): 96%

Compound: ATKAVCVLKGDGPVQGSINFEQKE (ATKAVCVLKGDGPVQGSINFEQKE) [Superoxide dismutase (1-24) (Human)]
Activity (%) AAA1 [4]: 80 ± 6%
Activity (%) aaa1 [5]: 0%
